The results in this text go back to US20260206754A1, “HETEROARYL COMPOUNDS FOR THE CONTROL OF INVERTEBRATE PESTS” (priority 2022, published 2026).

Where two headings read alike, the source gives them in different places.

Common to all, as to format: in vivo
The test system of data set [1] is tobacco budworm (Heliothis virescens). The data set is described as follows: B.1 Tobacco budworm, 96-well microtiter plate diet test with eggs. Particulars: for mortality at 2500 ppm: 120 h, egg and larval mortality after 5 days, read-out: mortality in comparison with untreated controls; for mortality at 100 ppm: comparative experiment C.6; for mortality at 274 ppm: comparative experiment C.9. Here is the method: (§1) If not otherwise specified, the test solutions were prepared as follow: The active compound was dissolved at the desired concentration in a mixture of 1:1 (vol:vol) distilled water:acetone. The test solution was prepared on the day of use.
B.1 Tobacco Budworm (Heliothis virescens)
For evaluating control of tobacco budworm (Heliothis virescens) the test unit consisted of 96-well-microtiter plates containing an insect diet and 15-25 H. virescens eggs.
The compounds were formulated using a solution containing 75% v/v water and 25% v/v DMSO. Different concentrations of formulated compounds were sprayed onto the insect diet at 10 μl, using a custom-built micro atomizer, at two replications.
After application, microtiter plates were incubated at about 28±1° C. and about 80±5% relative humidity for 5 days. Egg and larval mortality was then visually assessed.

Data set [2] has as its system boll weevil (Anthonomus grandis). The data set can be described thus: B.2 Boll weevil, 96-well microtiter plate diet test with eggs. The settings on record: for mortality at 2500 ppm: 120 h, egg and larval mortality after 5 days, read-out: mortality in comparison with untreated controls; for mortality at 9.9 ppm: comparative experiment C.9. Here is the method: as §1
B.2 Boll Weevil (Anthonomus grandis)
For evaluating control of boll weevil (Anthonomus grandis) the test unit consisted of 96-well-microtiter plates containing an insect diet and 5-10 A. grandis eggs.
The compounds were formulated using a solution containing 75% v/v water and 25% v/v DMSO. Different concentrations of formulated compounds were sprayed onto the insect diet at 5 μl, using a custom-built micro atomizer, at two replications.
After application, microtiter plates were incubated at about 25±1° C. and about 75±5% relative humidity for 5 days. Egg and larval mortality was then visually assessed.

For data set [3], the system named is yellow fever mosquito (Aedes aegypti). The data set can be described thus: whole plant or invertebrate. Particulars: for mortality at 2500 ppm: 48 h, larval mortality after 2 days, read-out: mortality in comparison with untreated controls. Here is the method:
as §1
B.5 Yellow Fever Mosquito (Aedes aegypti)
For evaluating control of yellow fever mosquito (Aedes aegypti) the test unit consisted of 96-well-microtiter plates containing 200 μl of tap water per well and 5-15 freshly hatched A. aegypti larvae.
The active compounds were formulated using a solution containing 75% (v/v) water and 25% (v/v) DMSO. Different concentrations of formulated compounds or mixtures were sprayed onto the insect diet at 2.5 μl, using a custom-built micro atomizer, at two replications.
After application, microtiter plates were incubated at 281° C., 80±5% RH for 2 days. Larval mortality was then visually assessed.

Data set [4] concerns green peach aphid (Myzus persicae). The data set can be described thus: B.6 Green peach aphid, systemic test with artificial diet under membrane. Here is the method:
as §1
B.6 Green Peach Aphid (Myzus persicae)
For evaluating control of green peach aphid (Myzus persicae) through systemic means, the test unit consisted of 96-well-microtiter plates containing liquid artificial diet under an artificial membrane.
The compounds were formulated using a solution containing 75% v/v water and 25% v/v DMSO. Different concentrations of formulated compounds were pipetted into the aphid diet, using a custom built pipetter, at two replications.
After application, 5-8 adult aphids were placed on the artificial membrane inside the microtiter plate wells. The aphids were then allowed to suck on the treated aphid diet and incubated at about 23±1° C. and about 50±5% relative humidity for 3 days. Aphid mortality and fecundity was then visually assessed.

Data set [5] concerns Southern armyworm (Spodoptera eridania), 2nd instar larvae. The data set can be described thus: B.3 Southern armyworm, 2nd instar larvae, foliar spray on lima bean plants. Particulars: 96 h, 4 days after treatment, read-out: mortality in comparison with untreated controls. The protocol:
B.3 Southern Armyworm (Spodoptera eridania), 2nd Instar Larvae
The active compounds were formulated by a Tecan liquid handler in 100% cyclohexanone as a 10,000-ppm solution supplied in tubes. The 10,000-ppm solution was serially diluted in 100% cyclohexanone to make interim solutions. These served as stock solutions for which final dilutions were made by the Tecan in 50% acetone:50% water (v/v) into 10 or 20 ml glass vials. A non-ionic surfactant (Kinetic@) was included in the solution at a volume of 0.01% (v/v). The vials were then inserted into an automated electrostatic sprayer equipped with an atomizing nozzle for application to plants/insects. Lima bean plants (variety Sieva) were grown 2 plants to a pot and selected for treatment at the 1st true leaf stage. Test solutions were sprayed onto the foliage by an auto-mated electrostatic plant sprayer equipped with an atomizing spray nozzle. The plants were dried in the sprayer fume hood and then removed from the sprayer. Each pot was placed into perforated plastic bags with a zip closure. Ten to 11 armyworm larvae were placed into the bag and the bags zipped closed. Test plants were maintained in a growth room at about 25° C. and about 20-40% relative humidity for 4 days, avoiding direct exposure to fluorescent light (14:10 light:dark photoperiod) to prevent trapping of heat inside the bags. Mortality and reduced feeding were assessed 4 days after treatment, compared to untreated control plants.

Setting [6] is: Anthonomus grandis, 90 ppm, comparative experiment C.8.
Setting [7] is: comparative experiment C.8, read-out: B.6, 2500 ppm (mortality).
Setting [8] is: 72 h, aphid mortality after 3 days, read-out: mortality in comparison with untreated controls.
The mark [9] stands for this setting: Anthonomus grandis, 90 ppm, comparative experiment C.7.

What is called mortality is the share of the test organisms that died.

As to `CC(NC(=O)c1cc(C(F)(F)F)cc(C(F)(F)F)c1)c1nccnc1-n1ncc(-c2ccn(C)n2)n1` (stereo not drawn) [I-29, N-[1-[3-[4-(1-methylpyrazol-3-yl)triazol-2-yl]pyrazin-2-yl]ethyl]-3,5-bis(trifluoromethyl)benzamide], the mortality at 2500 ppm is at least 75% in data set [1]; at least 75% in data set [2] (Anthonomus grandis); at least 75% in data set [3]; 100% in data set [4] (setting [7]); at least 75% in data set [4] (setting [8]). Besides, in data set [2] (setting [6]), the mortality at 90 ppm amounted to 100%.

For the molecule `CSc1cnn(-c2c(Cl)ccnc2C(C)NC(=O)c2cc(C(F)(F)F)cc(C(F)(F)F)c2)c1` (stereo not drawn) [I-26, N-[1-[4-chloro-3-(4-methylsulfanylpyrazol-1-yl)-2-pyridyl]ethyl]-3,5-bis(trifluoromethyl)benzamide], the mortality at 2500 ppm in data set [1], in data set [2] (Anthonomus grandis) and in data set [3] was at least 75% each time. In addition, in data set [5], the mortality at 300 ppm is at least 75%.

As to `Cc1cn(-c2nccnc2C(C)NC(=O)c2cc(C(F)(F)F)cc(C(F)(F)F)c2)nn1` (stereo not drawn) [WO2021/037614 P41, reference compound], the mortality at 30 ppm in data set [2] (Anthonomus grandis, 30 ppm, comparative experiment C.3) was 0%. The mortality at 90 ppm in data set [4] (90 ppm, comparative experiment C.3) is 0%.

As for `CC(NC(=O)c1cc(C(F)(F)F)cc(C(F)(F)F)c1)c1nccnc1-n1cc([S+]([O-])C(C)C)cn1` (stereo not drawn) [I-69, N-[1-[3-(4-isopropylsulfinylpyrazol-1-yl)pyrazin-2-yl]ethyl]-3,5-bis(trifluoromethyl)benzamide], the mortality at 2500 ppm in data set [1], in data set [2] (Anthonomus grandis), in data set [3] and in data set [4] (setting [8]) was at least 75% each time.

Regarding `CC(NC(=O)c1cc(C(F)(F)F)cc(C(F)(F)F)c1)c1nccnc1-n1cc(S(=O)(=O)C(F)(F)F)cn1` (stereo not drawn) [I-55, 3,5-bis(trifluoromethyl)-N-[1-[3-[4-(trifluoromethylsulfonyl)pyrazol-1-yl]pyrazin-2-yl]ethyl]benzamide], in data set [1], the mortality at 100 ppm stood at 100%. The mortality at 2500 ppm in data set [1], in data set [2] (Anthonomus grandis) and in data set [3] was at least 75% in each case. This molecule also showed a mortality at 90 ppm in data set [2] (Anthonomus grandis, 90 ppm, comparative experiment C.6) of 100%.

In data set [1], `CC(NC(=O)c1cc(Cl)cc(S(C)(=O)=O)c1)c1nccnc1-n1ncc(-c2ccccn2)n1` (stereo not drawn) [I-73] gave a mortality at 274 ppm of 100%. The mortality at 2500 ppm in data set [1], in data set [2] (Anthonomus grandis), in data set [3] and in data set [4] (setting [8]) was at least 75% each time. In data set [2] (Anthonomus grandis), this molecule showed a mortality at 9.9 ppm of 100%.

Turning to `CC(NC(=O)c1cc(C(F)(F)F)cc(C(F)(F)F)c1)c1nccnc1-n1cc(S(=O)(=O)C2CC2)cn1` (stereo not drawn) [I-65, N-[1-[3-(4-cyclopropylsulfonylpyrazol-1-yl)pyrazin-2-yl]ethyl]-3,5-bis(trifluoromethyl)benzamide], the mortality at 2500 ppm in data set [1], in data set [2] (Anthonomus grandis), in data set [3] and in data set [4] (setting [8]) was at least 75% in each case.

On to `CC(NC(=O)c1cc(C(F)(F)F)cc(C(F)(F)F)c1)c1nccc(F)c1-n1cc(S(C)(=O)=O)cn1` (stereo not drawn) [I-53, N-[1-[4-fluoro-3-(4-methylsulfonylpyrazol-1-yl)-2-pyridyl]ethyl]-3,5-bis(trifluoromethyl)benzamide], for which the mortality at 2500 ppm in data set [1], in data set [2] (Anthonomus grandis) and in data set [3] was at least 75% throughout.

As to `CC(NC(=O)c1cc(C(F)(F)F)cc(C(F)(F)F)c1)c1nccc(Cl)c1-n1cc([S+](C)[O-])cn1` (stereo not drawn) [I-28, N-[1-[4-chloro-3-(4-methylsulfinylpyrazol-1-yl)-2-pyridyl]ethyl]-3,5-bis(trifluoromethyl)benzamide], the mortality at 2500 ppm in data set [2] (Anthonomus grandis) and in data set [4] (setting [8]) was at least 75% in each case. The mortality at 300 ppm in data set [5] is at least 75%.

With `CC(C)Sc1cnn(-c2nccnc2C(C)NC(=O)c2cc(C(F)(F)F)cc(C(F)(F)F)c2)c1` (stereo not drawn) [I-48, N-[1-[3-(4-isopropylsulfanylpyrazol-1-yl)pyrazin-2-yl]ethyl]-3,5-bis(trifluoromethyl)benzamide], the mortality at 90 ppm in data set [1] (comparative experiment C.7) and in data set [2] (setting [9]) was 100% in each case. Moreover, the mortality at 2500 ppm in data set [1] and in data set [2] (Anthonomus grandis) was at least 75% throughout. The mortality at 300 ppm in data set [5] is at least 75%.

In data set [1] (comparative experiment C.1), `Cc1cnn(-c2nccnc2C(C)NC(=O)c2cc(C(F)(F)F)cc(C(F)(F)F)c2)n1` (stereo not drawn) [WO2021/037614 P1, reference compound] displayed a mortality at 90 ppm of 25%. In data set [4] (comparative experiment C.1), this molecule returned a mortality at 30 ppm of 25%.

For `CC[S+]([O-])c1cnn(-c2nccnc2C(C)NC(=O)c2cc(C(F)(F)F)cc(C(F)(F)F)c2)c1` (stereo not drawn) [I-58], the mortality at 90 ppm in data set [1] (comparative experiment C.7) and in data set [2] (setting [9]) was 100% throughout. Besides, the mortality at 2500 ppm in data set [1], in data set [2] (Anthonomus grandis), in data set [3] and in data set [4] (setting [8]) was at least 75% throughout.

`CC(NC(=O)c1cc(C(F)(F)F)cc(C(F)(F)F)c1)c1nccnc1-n1cc(S(=O)(=O)C(C)C)cn1` (stereo not drawn) [I-67, N-[1-[3-(4-isopropylsulfonylpyrazol-1-yl)pyrazin-2-yl]ethyl]-3,5-bis(tri-fluoromethyl)benzamide]: the mortality at 2500 ppm in data set [1], in data set [2] (Anthonomus grandis), in data set [3] and in data set [4] (setting [8]) was at least 75% each time.

In data set [1], `CC(NC(=O)c1cc(Cl)cc(S(C)(=O)=O)c1)c1nccnc1-n1nccn1` (stereo not drawn) [WO2021/259997 I-1, reference compound] showed a mortality at 274 ppm of 0%. The mortality at 9.9 ppm in data set [2] (Anthonomus grandis) worked out at 0%.

In data set [2] (Anthonomus grandis, 90 ppm, comparative experiment C.5), `CC(NC(=O)c1cc(C(F)(F)F)cc(C(F)(F)F)c1)c1nccnc1-n1cc(Cl)cn1` (stereo not drawn) [WO2021/069575 I-96, reference compound] yielded a mortality at 90 ppm of 50%. For the same molecule, the mortality at 80 ppm in data set [3] (80 ppm, comparative experiment C.5, read-out: B.5, 80 ppm (mortality)) was determined as 0%. In addition, in data set [4] (comparative experiment C.5, read-out: B.6, 2500 ppm (mortality)), the mortality at 2500 ppm amounted to 0%.

In data set [2] (setting [6]), `CC(NC(=O)c1cc(C(F)(F)F)cc(C(F)(F)F)c1)c1nccnc1-c1cn(-c2ccn(C)n2)nn1` (stereo not drawn) [WO2021/259997 I-12, reference compound] gave a mortality at 90 ppm of 0%. In addition, the mortality at 2500 ppm in data set [4] (setting [7]) is 0%.

On to `CC(NC(=O)c1cc(C(F)(F)F)cc(C(F)(F)F)c1)c1nccnc1-n1cc(C(F)(F)F)cn1` (stereo not drawn) [WO2021/069575 I-92, reference compound], for which the mortality at 100 ppm in data set [1] was determined as 50%. In addition, in data set [2] (90 ppm, comparative experiment C.6), the “B.2, 90 ppm (mortality)” value is 0%. In addition, the mortality at 90 ppm in data set [2] (Anthonomus grandis, 90 ppm, comparative experiment C.4) was 0%; in data set [3] (90 ppm, comparative experiment C.4, read-out: B.5, 90 ppm (mortality)), 0%. This molecule also yielded a mortality at 30 ppm in data set [4] (comparative experiment C.4) of 0%.
